Like-named read-outs stand apart in the source and are kept apart here.
Legend:
Gram-negative bacteria = assay: antibacterial activity against most Gram-negative bacteria (compared with Cefazolin and Cefuroxime); type: cell-based
streptococci = type: cell-based
[1] = tested on: 10 strains of Pseudomonas aeruginosa, 4 strains of Proteus vulgaris and 4 strains of Proteus morganii; assay: test on a series of strains of Pseudomonas aeruginosa, Proteus vulgaris and Proteus morganii; type: cell-based; conditions: 10 strains Pseudomonas aeruginosa, 4 strains Proteus vulgaris, 4 strains Proteus morganii
[2] = tested on: mice infected with Escherichia coli G, Klebsiella pneumoniae ATCC 10031, Proteus mirabilis ATCC 9921, Escherichia coli Tem., Haemophilus influenzae Salmonella …; assay: in vivo activity in infected mice; conditions: in words
[3] = plasma half-life in the rat after intravenous injection; conditions: in vivo
[4] = tested on: Bacteroides fragilis VPL 9032; assay: in vitro activity against Bacteroides fragilis VPL 9032; type: cell-based
[5] = plasma half-life in the mouse after intravenous injection; conditions: in vivo
[6] = tested on: Pseudomonas aeruginosa G.; assay: in vitro activity against Pseudomonas aeruginosa G.; type: cell-based
[7] = approximate acute toxicity (LD50) in the mouse; conditions: in vivo, single intravenous administrations of increasing doses, measured on the seventh day
From the text: The toxicity of the compounds of the invention is quite negligible and therefore they can be safely used in therapy. […] Analogous activity and toxicity data have been found for the other compounds of the invention.

Row | Structure (SMILES) | times more active than Cefazolin and Cefuroxime against most Gram-negative bacteria (Gram-negative bacteria; ratio vs Cefazolin and Cefuroxime) | times more active than Cefazolin against streptococci (streptococci; ratio vs Cefazolin, streptococci) | activity compared with Cefazolin and Cefuroxime [1] | activity in vivo tests [2] | times more active than Cefazolin against most Gram-negative bacteria (Gram-negative bacteria; ratio vs Cefazolin) | times more active than Cefuroxime against most Gram-negative bacteria (Gram-negative bacteria; ratio vs Cefuroxime) [times] | half-life [3] [h] | in vitro activity [4] | times more active than Cefazolin against streptococci (streptococci) | half-life [5] [h] | in vitro activity [6] | LD50 at 168 h [7] [mg/kg]
1 | CON=C(C(=O)NC1C(=O)N2C(C(=O)O)=C(CSc3cc(N)c4nnnn4n3)CSC12)c1csc(N)n1 (stereo not drawn) [FCE 20127, 3-[(8-amino-6-tetrazolo[1,5-b]pyridazinyl)-thiomethyl]-7-[2-(2-amino-4-thiazolyl)-2-methoxyiminoacetamido]-3-cephem-4-carboxylic acid (syn-isomer)] | about 30 times | about 24 times | several times more active than Cefazolin and Cefuroxime |  |  |  |  |  |  |  |  | 
2 | CON=C(C(=O)NC1C(=O)N2C(C(=O)O)=C(CSc3cc(C(=O)O)c4nnnn4n3)CSC12)c1csc(N)n1 (stereo not drawn) [FCE 20485, 3-[(8-carboxy-6-tetrazolo[1,5-b]pyridazinyl)-thiomethyl]-7-[2-(2-amino-4-thiazolyl)-2-methoxyiminoacetamido]-3-cephem-4-carboxylic acid (syn-isomer)] |  |  |  | high activity | about 32 times | ~40 | ~1.67 | significant in vitro activity | about 5 times | ~1.5 | significant in vitro activity | > 2000

Reference: patent US4331666A, “3-[(8-Carboxy-6-tetraz olo[1,5-b]pyridazinyl)-thiomethyl]-7-[2-(2-amino-4-thiazolyl)-2-methoxyim ino-acetamido]-3-cephem-4-carboxylic acid” (Farmitalia Carlo Erba S.p.A., priority 1979, dated 1982)
